Test [1] addresses T1, MAO-A of the brain of a rat (Rattus norvegicus, UniProt P21396).
T1 construct: total rat brain homogenate, with 1 g of tissue/16 ml of phosphate buffer; from tissue; host or cells: rat brain, total homogenate
T1 sequence (P21396 1-526): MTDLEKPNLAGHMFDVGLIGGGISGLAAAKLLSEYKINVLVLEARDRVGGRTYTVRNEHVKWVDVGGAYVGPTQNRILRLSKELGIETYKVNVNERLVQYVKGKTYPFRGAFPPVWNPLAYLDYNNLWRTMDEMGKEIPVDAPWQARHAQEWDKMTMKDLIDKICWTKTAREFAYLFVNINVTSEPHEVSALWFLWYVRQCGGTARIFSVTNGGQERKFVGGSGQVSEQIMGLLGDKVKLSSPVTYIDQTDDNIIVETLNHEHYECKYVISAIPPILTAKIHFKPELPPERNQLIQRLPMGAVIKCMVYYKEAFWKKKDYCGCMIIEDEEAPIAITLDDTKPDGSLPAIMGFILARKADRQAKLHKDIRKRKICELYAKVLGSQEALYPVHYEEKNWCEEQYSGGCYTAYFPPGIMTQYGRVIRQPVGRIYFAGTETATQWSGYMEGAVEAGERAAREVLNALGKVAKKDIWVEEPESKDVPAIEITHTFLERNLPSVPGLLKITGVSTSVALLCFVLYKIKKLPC
The test can be described thus: in vitro inhibition of MAO-A, total rat brain homogenate. The test is classed as biochemical. The note with it: preincubation of 60', 1 g of tissue/16 ml phosphate buffer pH 7.4, substrate [14C]5-hydroxytryptamine 480 μM, read-out: IC 50 (A), MAO-A. As for the experimental part:
(§1) This activity has been given prominence by the implementation of the protocol described by P. DOSTERT et al. in J. Pharm. Parmacol., 1983, 35, 161-165; this protocol is based on enzymatic tests carried out with or without preincubation in particular for 60 minutes and it allows measurement in vitro of the inhibiting effect with regard to the MAO-A and the MAO-B of the brain of a rat.
(§2) In Table 4 below are shown the inhibiting concentrations 50 (IC 50) for the A and B forms of MAO, obtained for a number of compounds (I) according to the invention following the above protocol applied to a total rat brain homogenate, with 1 g of tissue/16 ml of phosphate buffer of pH 7.4.
(§3) Substrate concentrations: [^14 C]5hydroxytryptamine = 480 μM,
(§4) [^14 C]phenylethylamine = 12 μM for the study of the inhibition o

In test [2] the target is T2, MAO-B of the brain of a rat (Rattus norvegicus, UniProt P19643).
T2 construct: total rat brain homogenate, with 1 g of tissue/16 ml of phosphate buffer; from tissue; host or cells: rat brain, total homogenate
T2 sequence (P19643 1-520): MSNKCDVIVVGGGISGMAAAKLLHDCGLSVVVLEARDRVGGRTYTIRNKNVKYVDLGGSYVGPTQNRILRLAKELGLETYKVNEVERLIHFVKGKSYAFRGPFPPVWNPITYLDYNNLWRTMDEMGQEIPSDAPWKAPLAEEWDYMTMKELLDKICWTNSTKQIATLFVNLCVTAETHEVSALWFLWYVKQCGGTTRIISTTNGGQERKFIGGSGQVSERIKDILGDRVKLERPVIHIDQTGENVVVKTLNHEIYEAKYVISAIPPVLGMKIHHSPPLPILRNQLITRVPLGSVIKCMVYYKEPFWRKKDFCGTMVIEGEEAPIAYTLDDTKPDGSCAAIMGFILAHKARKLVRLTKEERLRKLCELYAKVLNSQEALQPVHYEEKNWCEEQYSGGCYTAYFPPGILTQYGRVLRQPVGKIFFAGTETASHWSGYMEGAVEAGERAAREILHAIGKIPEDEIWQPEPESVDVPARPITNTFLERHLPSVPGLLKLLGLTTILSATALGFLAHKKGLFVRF
Nature of the test: in vitro inhibition of MAO-B, total rat brain homogenate. The test is classed as biochemical. The conditions noted are these: preincubation of 60'; for ratio IC 50 (A) / IC 50 (B) (head is drawing 22): selectivity MAO-B over MAO-A, 60 min; for IC50: total rat brain homogenate, 1 g of tissue/16 ml phosphate buffer pH 7.4, substrate [14C]phenylethylamine 12 μM, read-out: IC 50 (B), MAO-B. As for the experimental part: as §1, §2, §3, §4

SMILES strings stand for the structures.

As for `C[C@@H]([C@H]1CN(c2ccc(OCc3cccc(Cl)c3)cc2)C(=O)O1)N(C)C` (relative stereo) [compound 340742], the figures for the IC50 in test [1] and in test [2] were greater than 1000 µM and 0.16 µM, respectively. In test [2], the “ratio IC 50 (A) / IC 50 (B) (head is drawing 22)” value (“ratio IC 50 (A) / IC 50 (B)” below) is reported as greater than 6250.

In the case of `COc1cccc(COc2ccc(N3C[C@H]([C@H](C)N(C)C)OC3=O)cc2)c1` (relative stereo) [compound 340743], in test [1], the IC50 is 1000 µM. Further, in test [2], the “ratio IC 50 (A) / IC 50 (B)” value came out at 2500 and the IC50 was found to be 0.4 µM.

For the compound `CN[C@@H](C)[C@H]1CN(c2ccc(OCc3cccc(Cl)c3)cc2)C(=O)O1` (relative stereo) [compound 340745], the IC50 in test [1] is 15 µM. In test [2], the “ratio IC 50 (A) / IC 50 (B)” value turned out to be 300 and the IC50 worked out at 0.05 µM.

On to `C[C@H]([C@H]1CN(c2ccc(OCc3cccc(Cl)c3)cc2)C(=O)O1)N(C)C` (relative stereo) [compound 340748], for which the IC50 in test [1] was 300 µM. Besides, in test [2], the “ratio IC 50 (A) / IC 50 (B)” value is greater than 15 and the IC50 stood at 20 µM.

With `COc1cccc(COc2ccc(N3C[C@H]([C@@H](C)N(C)C)OC3=O)cc2)c1` (relative stereo) [compound 340749], the IC50 was greater than 30 µM in test [1] and 300 µM in test [2]. Moreover, in test [2], the “ratio IC 50 (A) / IC 50 (B)” value is on record as greater than 10.

Consider `C[C@H](N)[C@H]1CN(c2ccc(OCc3cccc(Cl)c3)cc2)C(=O)O1` (relative stereo) [compound 340750], for which the IC50 in test [1] came out at 210 µM. In test [2], the “ratio IC 50 (A) / IC 50 (B)” value is 553 and the IC50 came out at 0.38 µM.

As for `C[C@@H]([C@H]1CN(c2ccc(OCc3cccc(Cl)c3)cc2)C(=O)O1)N(C)C` [compound 200562, erythro stereoisomer (-) (R, S) of 3-[4-(3-chlorobenzyloxy)phenyl] 5-(1-dimethylaminoethyl) oxazolidin-2-one], the results for the IC50 in test [1] and in test [2] were greater than 100 µM and 0.053 µM, respectively. For the same compound, the “ratio IC 50 (A) / IC 50 (B)” value in test [2] is recorded as greater than 1887.

For `CN[C@H](C)[C@@H]1CN(c2ccc(OCc3cccc(Cl)c3)cc2)C(=O)O1` [compound 340179], the IC50 worked out at 18.3 µM in test [1] and 1.16 µM in test [2]. Further, the “ratio IC 50 (A) / IC 50 (B)” value in test [2] is given as 16.

Consider `CN[C@@H](C)[C@H]1CN(c2ccc(OCc3cccc(Cl)c3)cc2)C(=O)O1` [compound 340271], for which the values for the IC50 in test [1] and in test [2] were 7.43 µM and 0.078 µM, respectively. Besides, the “ratio IC 50 (A) / IC 50 (B)” value in test [2] is on record as 95.

Regarding `CN[C@H](C)[C@H]1CN(c2ccc(OCc3cccc(Cl)c3)cc2)C(=O)O1` [compound 340276], the IC50 was determined as 148 µM in test [1] and 1.35 µM in test [2]. For the same compound, the “ratio IC 50 (A) / IC 50 (B)” value in test [2] is listed as 110.

Turning to `C[C@@H](N)[C@H]1CN(c2ccc(OCc3cccc(Cl)c3)cc2)C(=O)O1` [compound 340321], the IC50 in test [1] is greater than 100 µM. Besides, in test [2], the “ratio IC 50 (A) / IC 50 (B)” value was greater than 19 and the IC50 is 5.34 µM.

For `CN[C@@H](C)[C@@H]1CN(c2ccc(OCc3cccc(Cl)c3)cc2)C(=O)O1` [compound 340333], the IC50 in test [1] was greater than 100 µM. Moreover, in test [2], the “ratio IC 50 (A) / IC 50 (B)” value is given as greater than 78 and the IC50 stood at 1.28 µM.

As to `C[C@H](N)[C@@H]1CN(c2ccc(OCc3cccc(Cl)c3)cc2)C(=O)O1` [compound 340366], in test [1], the IC50 was greater than 100 µM. Besides, in test [2], the “ratio IC 50 (A) / IC 50 (B)” value is listed as greater than 61 and the IC50 amounted to 1.64 µM.

In the case of `COc1cccc(COc2ccc(N3C[C@H]([C@H](C)N(C)C)OC3=O)cc2)c1` [compound 340744], the IC50 in test [1] was greater than 1000 µM; in test [2], 0.25 µM. In addition, the “ratio IC 50 (A) / IC 50 (B)” value in test [2] is greater than 4000.

Regarding `C[C@H]([C@@H]1CN(c2ccc(OCc3cccc(Cl)c3)cc2)C(=O)O1)N(C)C` [compound 340746], the figures for the IC50 in test [1] and in test [2] were greater than 1000 µM and 1.6 µM, respectively. For the same compound, in test [2], the “ratio IC 50 (A) / IC 50 (B)” value is on record as greater than 625.

In the case of `COc1cccc(COc2ccc(N3C[C@@H]([C@@H](C)N(C)C)OC3=O)cc2)c1` [compound 340747], in test [1], the IC50 is greater than 1000 µM. In test [2], the “ratio IC 50 (A) / IC 50 (B)” value is reported as greater than 67 and the IC50 stood at 15 µM.
